Measured values taken from US8455443B2, “Methods of use of skin wound healing compositions” (University of Southern California, priority 2009, dated 2013).

Key:
[1] = test system: HKC migration; experiment: in vitro pro-motility (cell migration) activity of hsp90α and its fragments, FIG. 1; assay type: cell-based, human; conditions: for activity on cell migration: relative to full length hsp90α
Method: FIG. 1 contains a list of amino acid sequences that were tested for in vitro efficacy as compared to a control medium. The amino acid sequences are identified in FIG. 1 as follows:
Therefore, hsp90α promotes HKC migration mainly through its middle and the carboxyl domains, consistent with their surface location in hsp90α.
However, as can also be seen in FIG. 1, not all of the full hsp90α protein or the entire middle domain and charged portion of hsp90α protein is necessary to promote wound healing. […] Thus, the unnecessary portions of hsp90α need not be included in a composition for wound healing, thereby allowing a composition to be more efficacious per weight of active wound healing agent. Moreover, instead of relying on complicated isolation and extraction methods to obtain the hsp90α protein or the middle domain plus charged portion of hsp90α protein, more inexpensive and conventional methods of synthesis may be employed to obtain the lower chain length polypeptide chains.

[2] = test system: 1 cm×1 cm full-thickness excision wound on the back of nude mice; experiment: full-thickness excision skin wound healing in nude mice, topical treatment; assay type: in vivo; conditions: for wound sizes: n=10 per group
Method: 100 μg F-3 fragments in 100 μl of 10% Carboxymethylcellulose cream and the cream alone was topically applied to the 1 cm×1 cm wound on the back of nude mice daily for 5 days, and wounds were analyzed every two days.
The pharmaceutical 100 μl of 10% carboxymethylcellulose cream (Sterile) is mixed in and the 1 cm×1 cm wound on the back of a nude mouse is topically covered. Following this treatment, the wound is covered with a few antibiotics and bandi and the bandi are fixed by rolling the mouse with coban. The F-3 compound mixture is then added every day for up to five days and the wound is analyzed every two days.
To prepare mice for topical treatment of F-3, 1.0-cm×1.0-cm full-thickness excision wounds were made by lifting the skin with forceps and removing full thickness skin with a pair of scissors on the mid-back of 8 to 10 week old mice. The wounds were topically covered by 100 μl 10% carboxymethylcellulose either without (as a control) or with 300 μg recombinant F-3 compound. The wound area was then covered with Band-Aid and Coban, a self-adherent wrap, to prevent desiccation. Only one dose of F-3 compounds was administered to the wound. To measure the wound area, standardized digital photographs were taken of the wounds at 4, 6, 8, 11, 13 and 15 days post-wounding and the open wound areas were determined with an image analyzer (AlphaEase FC version 4.1.0, Alpha Innotech Corporation). Percentage of wound area was defined by comparing areas of healing wounds to those of the original wounds. The Student T test was used for the statistical analysis. All animal studies were conducted using protocols approved by the University of Southern California Institutional Animal Use Committee.
A 1.0-cm^2 (lcm×lcm) square full-thickness excision wound was made on the mid-back of 8 to 10 week old athymic nude mice and the pharmaceutical composition of F-3 was applied topically daily for 5 days (n=10 mice per group). (A) Representative day 4, 6, 8, 11, 13 and 15 wounds are shown. […] (B) Mean±SD wound size measurements at day 4, 6, 8, 11, 13 and 15 post-wounding (n=10 mice for each group). […]

Question: Which “activity on cell migration” value [1] does the source give for “EEKEDKEEEKEKEEKESEDKPEIEDVGSDEEEEKKDGDKKKKKKIKEKYIDQEE (listed as Homo sapiens) [F-5, hsp90α fragment having 54 amino acid units from amino acid number 236 to 289]” here?
Answer: Its value is about 100%.

Question: How did the “activity on cell migration” value [1] turn out when “F-3: fragment of hsp90α consisting of 115 amino acid units, from amino acid number 236 to 350” was run?
Answer: Its value is about 100%.

Question: What about the “closure of the wounds” value ([2]; 100 μg in 100 μl 10% carboxymethylcellulose cream, topical, daily for 5 days, day 4, 6, 8, 11, 13, 15, vs cream control, FIGS. 2A-2F) of the same substance?
Answer: The value was “significantly accelerated closure of the wounds”.

Question: And the wound sizes ([2]; F-3 vs 40 μg PDGF-BB (Regenerex) for 5 days, day 0, 5, 7, 10, 12, FIGS. 3A-3E)?
Answer: The wound sizes was “significantly reduced”.

Question: And the wound sizes ([2]; athymic nude mice, topical daily for 5 days, day 4, 6, 8, 11, 13, 15, vs cream alone)?
Answer: The wound sizes was “significantly reduced”.

Question: With “WT hsp90α: the full-length (WT) hsp90α protein” as the substance, how does the pro-motility activity ([1]; in comparison to the control medium) read?
Answer: The pro-motility activity was “remarkable pro-motility activity”.

Question: And the “activity on cell migration” value [1]?
Answer: Its value is 100%.
